The values below come from ChEMBL document CHEMBL3608305, “Synergistic activation of quorum sensing in Vibrio harveyi” (Bioorg Med Chem Lett, 2015).

Activity calls are given as the source filed them. The calls are words filed in the database; no cut-off is given here.

In data set [1] the target is Autoinducer 2-binding periplasmic protein LuxP (Vibrio harveyi) (UniProt P54300). Put plainly: Binding affinity to LuxP in Vibrio harveyi BB120 assessed as activation of quorum sensing system after 6 hrs by bioluminescence assay. Conditions: Vibrio campbellii ATCC BAA-1116.
Autoinducer 2-binding periplasmic protein LuxP (Vibrio harveyi), sequence (P54300 whole entry): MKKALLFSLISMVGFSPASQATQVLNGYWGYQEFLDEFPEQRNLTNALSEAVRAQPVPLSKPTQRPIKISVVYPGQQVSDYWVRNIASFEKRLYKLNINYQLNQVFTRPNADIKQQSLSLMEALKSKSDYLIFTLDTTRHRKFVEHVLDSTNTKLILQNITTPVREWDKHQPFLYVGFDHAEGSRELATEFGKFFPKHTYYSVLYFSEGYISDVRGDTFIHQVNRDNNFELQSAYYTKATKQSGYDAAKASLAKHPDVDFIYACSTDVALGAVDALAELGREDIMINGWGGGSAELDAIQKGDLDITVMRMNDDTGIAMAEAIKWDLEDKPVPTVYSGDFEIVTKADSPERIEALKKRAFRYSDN
The target is the same in data set [2]. In words: (§1) Binding affinity to LuxP in Vibrio harveyi MM32 assessed as activation of quorum sensing system after 5 hrs by bioluminescence assay in presence of exogenous synthetic DPD.
Data set [3] concerns the target Autoinducer 2-binding periplasmic protein LuxP (Vibrio harveyi, UniProt P54300). The data set is described as §1.
The subject of the next data set is Vibrio harveyi. In words: Toxicity in Vibrio harveyi MM32 at >5 uM. The class given is organism-based. Conditions: in vivo.
Data set [4] has as its target Autoinducer 2-binding periplasmic protein LuxP (Vibrio harveyi) (UniProt P54300). In words: Binding affinity to LuxP in Vibrio harveyi MM32 assessed as activation of quorum sensing system at 1.5 to 100 uM after 5 hrs by bioluminescence assay in absence of exogenous synthetic DPD.

Autoinducer 2-binding periplasmic protein LuxP, sequence (P54300 whole entry): as above

On to `O=C(Cc1ccc2ccccc2c1)C(=O)[C@@H](O)CO`, for which the figures for the Activity entry (in data set [1]; in data set [2]; in the data set with Vibrio harveyi) were “Dose-dependent effect”, “Dose-dependent effect” and “Toxic”, respectively. The EC50 in data set [3] came out at 20 µM. In data set [4], the result was inactive.
